Laboratory results taken from ChEMBL document CHEMBL4808200, “Identification of a Series of N-Methylpyridine-2-carboxamides as Potent and Selective Inhibitors of the Second Bromodomain (BD2) of the Bromo and Extra Terminal Domain (BET) Proteins” (J Med Chem, 2021).
Values after ≈ are worked out from the molar mass of the structure shown.

What was measured:
physchem = conditions: buffer, pH 7.4
[1] = Intrinsic clearance in human cryopreserved pooled hepatocytes at 0.5 uM measured up to 120 mins by LC-MS/MS analysis; type: ADME, tissue-based, Hepatocyte; conditions: 2 h
[2] = Clearance in Beagle dog at 0.5 mg/kg, iv administered as 1 hr infusion on day 1 and day 7 to achieve a target dose of 1 mg/kg by LC-MS/MS analysis; type: ADME, organism-based, Canis lupus familiaris; conditions: in vivo, dose 0.5-1 mg/kg, time 7 day
[3] = Volume of distribution at steady state in Beagle dog at 0.5 mg/kg, iv administered as 1 hr infusion on day 1 and day 7 to achieve a target dose of 1 mg/kg by LC-MS/MS analysis; type: ADME, organism-based, Canis lupus familiaris; conditions: in vivo, dose 0.5-1 mg/kg, time 7 day, read-out: Vdss
[4] = Clearance in Wistar Han rat at 1 mg/kg, iv administered as 1 hr infusion or 3 mg/kg, po administered via gavage by LC-MS/MS analysis; type: ADME, organism-based; conditions: in vivo
[5] = Oral bioavailability in Wistar Han rat at 3 mg/kg administered via gavage by LC-MS/MS analysis; type: ADME, organism-based; conditions: in vivo
[6] = Volume of distribution at steady state in Wistar Han rat at 1 mg/kg, iv administered as 1 hr infusion or 3 mg/kg, po administered via gavage by LC-MS/MS analysis; type: ADME, organism-based; conditions: in vivo, read-out: Vdss
[7] = Unbound clearance in Wistar Han rat at 1 mg/kg, iv administered as 1 hr infusion or 3 mg/kg, po administered via gavage by LC-MS/MS analysis; type: ADME, organism-based; conditions: in vivo
[8] = Half life in Beagle dog at 0.5 mg/kg, iv administered as 1 hr infusion on day 1 and day 7 to achieve a target dose of 1 mg/kg by LC-MS/MS analysis; type: ADME, organism-based, Canis lupus familiaris; conditions: in vivo, dose 0.5-1 mg/kg, time 7 day
[9] = Half life in Wistar Han rat at 1 mg/kg, iv administered as 1 hr infusion or 3 mg/kg, po administered via gavage by LC-MS/MS analysis; type: ADME, organism-based; conditions: in vivo
[10] = Intrinsic clearance in Wistar Han rat cryopreserved pooled hepatocytes at 0.5 uM measured up to 60 mins by LC-MS/MS analysis; type: ADME, tissue-based, Hepatocyte; conditions: 1 h
[11] = Permeability of the compound at pH 7.4 by artificial membrane permeability assay; type: ADME; conditions: PAMPA, read-out: permeability
[12] = Intrinsic clearance in Beagle dog cryopreserved pooled hepatocytes at 0.5 uM measured up to 120 mins by LC-MS/MS analysis; type: ADME, tissue-based, Canis lupus familiaris, Hepatocyte; conditions: 2 h
[13] = Unbound clearance in Beagle dog at 0.5 mg/kg, iv administered as 1 hr infusion on day 1 and day 7 to achieve a target dose of 1 mg/kg by LC-MS/MS analysis; type: ADME, organism-based, Canis lupus familiaris; conditions: in vivo, 168 h, dose 0.5-1 mg/kg, time 7 day
[14] = Solubility of the compound in pH 6.5 FaSSIF at […] measured after 16 hrs by HPLC analysis; type: physicochemical
[15] = Oral bioavailability in Beagle dog; type: ADME, organism-based, Canis lupus familiaris; conditions: in vivo
[16] = Clearance in Beagle dog at 0.5 mg/kg, iv administered as 1 hr infusion on day 1 and day 7 to achieve a target dose of 1 mg/kg by LC-MS/MS analysis relative to liver blood flow; type: ADME, organism-based, Canis lupus familiaris; conditions: in vivo, 168 h, dose 0.5-1 mg/kg, time 7 day

| chromatographic logD (physchem) | CLH [1] [mL/min/g] | clearance [2] [mL/min/kg] | Vd [3] [L/kg] | clearance [4] [mL/min/kg] | bioavailability [5] [%] | Vd [6] [L/kg] | CL free [7] [mL/min/kg] | half-life [8] [min] | half-life [9] [min] | CLH [10] [mL/min/g] | Papp [11] [×10⁻⁶ cm/s] | CLH [12] [mL/min/g] | CL free [13] [mL/min/kg] | solubility at 16 h [14] [µg/mL] | bioavailability [15] [%] | QH [16] [%] | SMILES |
| --- | --- | --- | --- | --- | --- | --- | --- | --- | --- | --- | --- | --- | --- | --- | --- | --- | --- |
| 3.1 | < 0.45 | 4 | 0.9 | 39 | 69 | 1.8 | 206 | 150 | 42 | 2.05 | 16 | < 0.65 | 19 | 91 (≈ 233 µM) | 41 | – | CNC(=O)c1cc(C(=O)N[C@H]2[C@@H]3COC[C@@H]32)cc(Cc2cccc3[nH]ccc23)n1 |
| 3 | < 0.45 | – | – | 33 | 98 | 4.1 | 73 | – | 114 | 0.88 | 19 | < 0.65 | – | 953 | – | – | CNC(=O)c1cc(C(=O)NC2CC2)cc(Cc2cccc3c2CCN3)n1.Cl |
| 3 | < 0.45 | 13 | 1.6 | 18 | 48 | 1.2 | 69 | 132 | 72 | 1.06 | 18.3 | < 0.65 | 88 | 127 (≈ 350 µM) | 55 | – | CNC(=O)c1cc(C(=O)N[C@H]2C[C@@H]2C)cc(Cc2cccc3[nH]ccc23)n1 |
| 2.9 | < 0.45 | – | – | 57 | 77 | 1.8 | 95 | – | 42 | < 0.8 | 5.6 | < 0.65 | – | – | – | – | CNC(=O)c1cc(C(=O)N[C@H]2[C@@H]3C[C@@H](O)C[C@@H]32)cc(C(OC)c2ccccc2)n1 (stereo not given in full) |
| 3.5 | < 0.45 | 43 | 1.4 | 22 | 62 | 1.7 | 168 | 24 | 18 | 1.4 | 21.5 | 0.76 | 122 | 112 (≈ 319 µM) | 10 | 80 | CNC(=O)c1cc(C(=O)N[C@H]2[C@@H]3COC[C@@H]32)cc(Cc2ccccc2)n1 |
| 3.2 | 0.8 | 32 | 2.1 | 29 | 34 | 2.2 | 96 | 36 | 120 | < 0.8 | 18.3 | 0.81 | 102 | > 1000 | 35 | – | CNC(=O)c1cc(C(=O)N[C@H]2C[C@@H]2C)cc([C@@H](O)c2ccccc2)n1 |
| 2.2 | – | – | – | – | – | – | – | – | – | – | 2.4 | – | – | 473 (≈ 1290 µM) | – | – | CNC(=O)c1cc(C(=O)N[C@H]2[C@@H]3COC[C@@H]32)cc(C(O)c2ccccc2)n1 (stereo not given in full) |
| 2.8 | < 0.45 | 42 | 2.4 | 31 | 28 | 0.7 | 365 | 54 | 24 | 1.04 | 15 | < 0.65 | 118 | – | 98 | – | CNC(=O)c1cc(C(=O)NCCC[C@H]2OC[C@H](N)CO2)cc(Cc2ccccc2)n1 |
| 3.1 | < 0.45 | – | – | 70 | 54 | 5.9 | – | – | 264 | 1.87 | 20 | < 0.65 | – | 930 (≈ 2380 µM) | – | – | CNC(=O)c1cc(C(=O)N[C@H]2[C@@H]3COC[C@@H]32)cc(C(CC#N)c2ccccc2)n1 (stereo not given in full) |
| 3.4 | < 0.45 | 9.4 | 0.9 | 52 | 17 | 2.1 | 142 | 72 | 90 | 1.27 | 14.5 | < 0.65 | 23 | 575 (≈ 1510 µM) | 65 | – | CNC(=O)c1cc(C(=O)N[C@H]2[C@@H]3COC[C@@H]32)cc(C(OC)c2ccccc2)n1 (stereo not given in full) |
| 3.9 | < 0.87 | – | – | 12 | 29 | 0.4 | 343 | – | 18 | 5.3 | 38.5 | < 1.3 | – | 89 (≈ 288 µM) | – | – | CNC(=O)c1cc(C(=O)NC2CC2)cc(Cc2ccccc2)n1 |
| 4.1 | < 0.45 | 44 | 1.3 | 52 | 39 | 1.7 | 147 | 24 | 24 | 2.03 | 37 | < 0.65 | 171 | 117 (≈ 320 µM) | 14 | – | CNC(=O)c1cc(C(=O)N[C@H]2[C@@H]3COC[C@@H]32)cc([C@@H](C)c2ccccc2)n1 |
| 3.3 | – | – | – | – | – | – | – | – | – | – | 10 | – | – | > 1000 | – | – | CNC(=O)c1cc(C(=O)N[C@H]2C[C@@H]2C)cc([C@@H](CO)c2ccccc2)n1 |
